Results as given in US12187759B2, “TLR7 agonists” (Primmune Therapeutics, Inc., priority 2019, dated 2025).

Experiments:
[1] = test system: hPBMCs (Human Peripheral Blood Mononuclear Cells); assay: Induction of interferon-α in hPBMCs in vitro; assay type: cell-based; settings: Homo sapiens, PBMC; for Emax: 24 h, peak IFNα2a as percentage of peak response of standard 2-Amino-7-(cyclopropylmethyl)-9-B-D-xylofuranosyl-7,9-dihydro-1H-purine-6,8-dione, averaged across donors, read-out: IFNrmax, Relative Maximal IFNα2a Production (%); for minimal effective concentration: minimal effective concentration for interferon-α production (generally at least 80 pg/ml above baseline), geometric mean across at least three donors, 24 hours, read-out: Weighted MEC
How it was run: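 Peripheral blood mononuclear cells from healthy human donors were dispensed into replicate culture wells at 1.0-7.5×10^6 cells per well. They were exposed to test compound for 24 hours at 37° C. in humidified 5% CO2, with untreated wells as controls. Secreted interferon-α was quantified with a multisubtype ELISA or as IFNα2a in a luminex panel. MEC was defined as the lowest concentration giving a significant rise above baseline, generally at least 80 pg/ml. IFNmax was the highest IFN level seen at any tested concentration.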

human TLR7 = molecular target: T1, human TLR7 (Homo sapiens, UniProt Q9NYK1); assay: TLR7 reporter cell assay (HEK293 cells stably expressing human TLR7 with NF-κB-driven SEAP reporter); assay type: cell-based; settings: 15-24 hours; for Emax at 500 µM: HEK293, 500 μM compound, SEAP activity (OD 650 nm) relative to 28.5 μM resiquimod, read-out: Response at 500 μM Compound as a Percent of Resiquimod Response; for EC50: fit of SEAP dose response, ymax from 28.5 μM resiquimod
T1 construct: host or cells: HEK293
T1 sequence (Q9NYK1 27-1049): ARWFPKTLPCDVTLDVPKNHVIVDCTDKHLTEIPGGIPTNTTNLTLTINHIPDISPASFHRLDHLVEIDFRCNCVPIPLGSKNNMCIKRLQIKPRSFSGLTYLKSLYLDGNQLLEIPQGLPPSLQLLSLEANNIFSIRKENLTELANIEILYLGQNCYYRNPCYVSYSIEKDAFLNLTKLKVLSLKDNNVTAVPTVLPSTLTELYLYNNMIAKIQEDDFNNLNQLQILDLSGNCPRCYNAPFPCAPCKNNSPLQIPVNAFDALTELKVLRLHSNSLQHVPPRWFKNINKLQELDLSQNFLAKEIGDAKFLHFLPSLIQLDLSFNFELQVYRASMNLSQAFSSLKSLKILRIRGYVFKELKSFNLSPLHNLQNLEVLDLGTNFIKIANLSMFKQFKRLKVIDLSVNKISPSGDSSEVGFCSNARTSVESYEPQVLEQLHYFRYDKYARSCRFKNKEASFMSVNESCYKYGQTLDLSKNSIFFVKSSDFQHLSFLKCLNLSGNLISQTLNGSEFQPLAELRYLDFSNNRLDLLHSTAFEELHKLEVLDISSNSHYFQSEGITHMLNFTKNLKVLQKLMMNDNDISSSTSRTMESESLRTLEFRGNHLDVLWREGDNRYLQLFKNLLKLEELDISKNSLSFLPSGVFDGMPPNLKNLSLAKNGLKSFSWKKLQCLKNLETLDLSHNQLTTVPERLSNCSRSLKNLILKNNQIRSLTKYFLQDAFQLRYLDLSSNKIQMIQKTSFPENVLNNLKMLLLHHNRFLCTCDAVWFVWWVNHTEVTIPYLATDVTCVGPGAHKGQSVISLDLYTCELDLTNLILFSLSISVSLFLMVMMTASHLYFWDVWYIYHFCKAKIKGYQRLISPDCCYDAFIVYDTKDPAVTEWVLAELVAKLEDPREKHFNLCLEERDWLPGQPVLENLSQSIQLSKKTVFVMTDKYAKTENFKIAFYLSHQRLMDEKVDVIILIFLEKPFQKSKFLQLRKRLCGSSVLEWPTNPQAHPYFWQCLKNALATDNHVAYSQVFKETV
How it was run: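 HEK293 cells stably expressing human TLR7 with an NF-κB-driven SEAP reporter, treated with compound for 15-24 hours. SEAP read at OD 650 nm. EC50 fitted by nonlinear least squares, maximum set by 28.5 μM resiquimod.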

Emax at 500 µM (human TLR7) [%]	EC50 (human TLR7) [µM]	SMILES	Emax [1] [%]	minimal effective concentration [1] [µM]
78	210	CCCCn1c(=O)n([C@@H]2O[C@H]([C@@H](O)C(F)(F)F)C[C@H]2O)c2nc(N)[nH]c(=O)c21 [Compound 31, 2-Amino-7-butyl-9-((2R,3R,5S)-3-hydroxy-5-((R)-2,2,2-trifluoro-1-hydroxyethyl)tetrahydrofuran-2-yl)-7,9-dihydro-1H-purine-6,8-dione]	71	6.3
< 5		C#CCn1c(=O)n([C@@H]2O[C@H]([C@@H](O)CN)C[C@H]2O)c2nc(N)[nH]c(=O)c21 [Compound 15, 2-Amino-9-((2R,3R,5S)-5-((S)-2-amino-1-hydroxyethyl)-3-hydroxytetrahydrofuran-2-yl)-7-(prop-2-yn-1-yl)-7,9-dihydro-1H-purine-6,8-dione]	≤ 10	> 50
58	358	CC[C@H](O)[C@H]1O[C@@H](n2c(=O)n(CC3CC3)c3c(=O)[nH]c(N)nc32)[C@H](O)[C@H]1F [Compound 17, 2-Amino-7-(cyclopropylmethyl)-9-((2R,3S,4R,5R)-4-fluoro-3-hydroxy-5-((S)-1-hydroxypropyl)tetrahydrofuran-2-yl)-7,9-dihydro-1H-purine-6,8-dione]	185	≤ 3.1
< 5		C#CCn1c(=O)n([C@@H]2O[C@H]([C@@H](O)CNC)C[C@H]2O)c2nc(N)[nH]c(=O)c21 [Compound 16, 2-Amino-9-((2R,3R,5S)-3-hydroxy-5-((S)-1-hydroxy-2-(methylamino)ethyl)tetrahydrofuran-2-yl)-7-(prop-2-yn-1-yl)-7,9-dihydro-1H-purine-6,8-dione]	≤ 10	> 50
68	339	CC[C@H](O)[C@@H]1C[C@@H](O)[C@H](n2c(=O)n(CCO)c3c(=O)[nH]c(N)nc32)O1 [Compound 32, 2-Amino-9-((2R,3R,5S)-3-hydroxy-5-((S)-1-hydroxypropyl)tetrahydrofuran-2-yl)-7-(2-hydroxyethyl)-7,9-dihydro-1H-purine-6,8-dione]	223	7.9
< 5		C#CCn1c(=O)n([C@@H]2O[C@H](C(C)(C)O)[C@H](F)[C@H]2O)c2nc(N)[nH]c(=O)c21 [Compound 19, 2-Amino-9-((2R,3S,4R,5R)-4-fluoro-3-hydroxy-5-(2-hydroxypropan-2-yl)tetrahydrofuran-2-yl)-7-(prop-2-yn-1-yl)-7,9-dihydro-1H-purine-6,8-dione]	≤ 10	> 50
66	185	C#CCn1c(=O)n([C@@H]2O[C@H]([C@@H](O)CSC)C[C@H]2O)c2nc(N)[nH]c(=O)c21 [Compound 45, 2-Amino-9-((2R,3R,5S)-3-hydroxy-5-((R)-1-hydroxy-2-(methylthio)ethyl)tetrahydrofuran-2-yl)-7-(prop-2-yn-1-yl)-7,9-dihydro-1H-purine-6,8-dione]	321	5
74	324	CCCn1c(=O)n([C@@H]2O[C@H]([C@@H](O)C(F)(F)F)C[C@H]2O)c2nc(N)[nH]c(=O)c21 [Compound 25, 2-Amino-9-((2R,3R,5S)-3-hydroxy-5-((R)-2,2,2-trifluoro-1-hydroxyethyl)tetrahydrofuran-2-yl)-7-propyl-7,9-dihydro-1H-purine-6,8-dione]	80	19.8
30	> 500	CC[C@H](O)[C@H]1O[C@@H](n2c(=O)n(CCSC)c3c(=O)[nH]c(N)nc32)[C@H](O)[C@H]1F [Compound 46, 2-Amino-9-((2R,3S,4R,5R)-4-fluoro-3-hydroxy-5-((S)-1-hydroxypropyl)tetrahydrofuran-2-yl)-7-(2-(methylthio)ethyl)-7,9-dihydro-1H-purine-6,8-dione]	317	3.1
